Experimental data from patent US20180094248A1, “Necroptosis Signaling as a Therapeutic Target for Alzheimer's Disease” (Arizona Board of Regents on behalf of Arizona State …, priority 2016, published 2018).

Assays:
Assay type in all cases: cell-based, mouse
phosphorylated MLKL = test: Western blot of total and phosphorylated MLKL in primary neurons (NeuN experiment)
Protocol: (§1) To probe for a direct link between necroptosis and neuronal loss in AD, we plated primary cortical neurons from APP/PS1 and wild type littermate mice. After seven days in vitro (DIV), neurons were treated with 10 μM of the necroptosis inhibitor 7-Cl-O-necrostatin (Nec15) or vehicle. Treatment was repeated at DIV 11. We then fixed neurons at DIV 11 and 15, and stained them for NeuN to count total number of neurons. […] To determine changes in necroptosis, we isolated proteins from neurons of the same four groups and measured the levels of total and phosphorylated MLKL by western blot.
Western blot and ELISA: The proteins were run using reducing conditions in precast gels (Thermo Fisher Scientific) and transferred to nitrocellulose membranes (iBlot, Thermo Fisher Scientific). […] The blots were then washed with TBS-T, and imaged/quantified using a LICOR Odyssey CLx (LI-COR Biosciences) attached to a Dell computer (OptiPlex 7010) running Windows 7 and Image Studio (version 1.0.11, LI-COR Biosciences). […]
Primary neuronal cultures—For the GFP experiments: Primary neurons were isolated from APP/PS1 and NonTg Po pups. […] Neurons were treated for a total of 15 days and the GFP fluorescence was measured every 4 days. […] All fluorescent measurements (excitation 488 nm, emission 509 nm) were performed using the Synergy HT multi-mode microplate reader with the Gen5 software (BioTek, Winooski, Vt.). […]

[1] = tested on: primary cortical neurons from APP/PS1 mice; test: NeuN count of APP/PS1 primary cortical neurons treated with Nec-1S or vehicle
Protocol: as §1
(§2) Primary neuronal cultures—For the GFP experiments: Primary neurons were isolated from APP/PS1 and NonTg Po pups. The tissue was then dissociated in Neurobasal media (Thermo Fisher Scientific) and spun down for 3 minutes at 5,000 g at 4° C. The supernatant was discarded and the pellet was re-suspended in 1 ml of Neurobasal media supplemented with B27 (Thermo Fisher Scientific). […] Neurons were treated for a total of 15 days and the GFP fluorescence was measured every 4 days. […] All fluorescent measurements (excitation 488 nm, emission 509 nm) were performed using the Synergy HT multi-mode microplate reader with the Gen5 software (BioTek, Winooski, Vt.). The reader was pre-heated to 37° C. to maintain optimal conditions for the neurons during the measurements. […]

[2] = tested on: primary cortical neurons from wild type littermate mice; test: NeuN count of wild type primary cortical neurons treated with Nec-1S or vehicle; details: 10 μM at DIV 7 and DIV 11
Protocol: as §1, §2

## CN1C(=O)NC(Cc2c[nH]c3c(Cl)cccc23)C1=O (centres unmarked) [Nec1S, 5-((7-chloro-1 H-indol-3-yl)methyl)-3-methylimidazolidine-2,4-dione]
Phosphorylated MLKL; DIV 11, all four groups, NeuN experiment
  pMLKL level: not detectable
Phosphorylated MLKL; DIV 15, 10 μM, APP/PS1-veh group vs the other three groups incl. APP/PS1-Nec1S
  ratio pMLKL/MLKL: statistically different compared to the other three groups
[1]; DIV 15, 10 μM at DIV 7 and DIV 11, APP/PS1-Nec1S vs APP/PS1-veh and WT groups
  number of NeuN-positive neurons: more neurons than the APP/PS1-veh group, and as many neurons as both WT groups
[1]; overall conclusion of the two independent experiments (NeuN and GFP), 10 μM
  in vitro cell death of APP/PS1 primary cortical neurons: reduces the accelerated in vitro cell death of APP/PS1 primary cortical neurons
[2]
  decrease in the number of wild type neurons: did not significantly affect the decrease in the number of wild type neurons
